Activity calls are given as the source filed them. No cut-off for these calls is given here.
Experiments:
[1] = test system: HCT-116; test: Induction of apoptosis in human HCT-116 cells assessed as downregulation of DTYMK gene expression at 10 to 500 nM incubated for 6 to 48 hrs by RNA analysis; assay type: functional, cell-based; conditions: dose 10-500 nM, time 6-48 hrs
[2] = test system: HCT-116; test: Induction of apoptosis in human HCT-116 cells assessed as downregulation of NUP43 gene expression at 10 to 500 nM incubated for 6 to 48 hrs by RNA analysis; assay type: functional, cell-based; conditions: dose 10-500 nM, time 6-48 hrs
[3] = test system: HCT-116; test: Induction of apoptosis in human HCT-116 cells assessed as downregulation of DCTPP1 gene expression at 10 to 500 nM incubated for 6 to 48 hrs by RNA analysis; assay type: functional, cell-based; conditions: dose 10-500 nM, time 6-48 hrs
[4] = test system: PDX27454; test: Antitumor activity against human PDX27454 cells xenografted in SCID mouse model assessed as reduction in tumor volume at 2 mg/kg,po administrated once per week for 3 weeks; assay type: functional, organism-based
[5] = test system: HCT-116; test: Induction of apoptosis in human HCT-116 cells assessed as modulation of DDX55 mRNA expression at 10 to 500 nM incubated for 6 to 48 hrs by RNA analysis; assay type: functional, cell-based; conditions: dose 10-500 nM, time 6-48 hrs
[6] = test system: HeLa; test: Growth inhibition of human HeLa cells incubated for 48 hrs by MTT reagent based ELISA reader analysis; assay type: functional, cell-based
[7] = test system: HCT-116; test: Induction of apoptosis in human HCT-116 cells assessed as modulation of DDX42 mRNA expression at 10 to 500 nM incubated for 6 to 48 hrs by RNA analysis; assay type: functional, cell-based; conditions: dose 10-500 nM, time 6-48 hrs
[8] = test system: HCT-116; test: Induction of apoptosis in human HCT-116 cells assessed as increase in intracellular ROS level incubated for 48 hrs by DCFH-DA staining based fluorescence microscopy; assay type: functional, cell-based
[9] = test system: HCT-116; test: Induction of apoptosis in human HCT-116 cells assessed as downregulation of BIRC5 mRNA expression at 10 to 500 nM incubated for 6 to 48 hrs by RNA analysis; assay type: functional, cell-based; conditions: dose 10-500 nM, time 6-48 hrs
[10] = test system: HCT-116; test: Induction of apoptosis in human HCT-116 cells assessed as upregulation of BIK mRNA expression at 10 to 500 nM incubated for 6 to 48 hrs by RNA analysis; assay type: functional, cell-based; conditions: dose 10-500 nM, time 6-48 hrs
[11] = test system: HCT-116; test: Induction of apoptosis in human HCT-116 cells assessed as modulation of TOP1 mRNA expression at 10 to 500 nM incubated for 6 to 48 hrs by RNA analysis; assay type: functional, cell-based; conditions: dose 10-500 nM, time 6-48 hrs
[12] = test system: HCT-116; test: Induction of apoptosis in human HCT-116 cells assessed as upregulation of ATF3 mRNA expression at 10 to 500 nM incubated for 6 to 48 hrs by RNA analysis; assay type: functional, cell-based; conditions: dose 10-500 nM, time 6-48 hrs
[13] = test system: HCT-116; test: Induction of apoptosis in human HCT-116 cells assessed as downregulation of MCL-1 protein expression incubated for 48 hrs by Western blotting analysis; assay type: functional, cell-based
[14] = test system: HCT-116; test: Induction of apoptosis in human HCT-116 cells assessed as modulation of TOP2B mRNA expression at 10 to 500 nM incubated for 6 to 48 hrs by RNA analysis; assay type: functional, cell-based; conditions: dose 10-500 nM, time 6-48 hrs
[15] = test system: HCT-116; test: Induction of apoptosis in human HCT-116 cells assessed as upregulation of POLR2A mRNA expression at 10 to 500 nM incubated for 6 to 48 hrs by RNA analysis; assay type: functional, cell-based; conditions: dose 10-500 nM, time 6-48 hrs
[16] = test system: HCT-116; test: Growth inhibition of human HCT-116 cells incubated for 48 hrs by MTT reagent based ELISA reader analysis; assay type: functional, cell-based; conditions: HCT-116, 48 h
[17] = test system: MCF7; test: Growth inhibition of human MCF7 cells incubated for 48 hrs by MTT reagent based ELISA reader analysis; assay type: functional, cell-based; conditions: MCF7, 48 h
[18] = test system: HCT-116; test: Activation of innate immune response in human HCT-116 cells assessed as upregulation of IL-12B gene expression at 10 to 500 nM incubated for 6 to 48 hrs by RNA analysis; assay type: functional, cell-based; conditions: dose 10-500 nM, time 6-48 hrs
[19] = test system: HCT-116; test: Induction of apoptosis in human HCT-116 cells assessed as upregulation of XPC mRNA expression at 10 to 500 nM incubated for 6 to 48 hrs by RNA analysis; assay type: functional, cell-based; conditions: dose 10-500 nM, time 6-48 hrs
[20] = test system: HCT-116; test: Induction of apoptosis in human HCT-116 cells assessed as downregulation of HK2 gene expression at 10 to 500 nM incubated for 6 to 48 hrs by RNA analysis; assay type: functional, cell-based; conditions: dose 10-500 nM, time 6-48 hrs
[21] = test system: HCT-116; test: Induction of apoptosis in human HCT-116 cells assessed as downregulation of ADSL gene expression at 10 to 500 nM incubated for 6 to 48 hrs by RNA analysis; assay type: functional, cell-based; conditions: dose 10-500 nM, time 6-48 hrs
[22] = test system: HCT-116; test: Induction of apoptosis in human HCT-116 cells assessed as upregulation of ADA mRNA expression at 10 to 500 nM incubated for 6 to 48 hrs by RNA analysis; assay type: functional, cell-based; conditions: dose 10-500 nM, time 6-48 hrs
[23] = test system: HCT-116; test: Induction of apoptosis in human HCT-116 cells assessed as modulation of DDX6 mRNA expression at 10 to 500 nM incubated for 6 to 48 hrs by RNA analysis; assay type: functional, cell-based; conditions: dose 10-500 nM, time 6-48 hrs
[24] = test system: HCT-116; test: Induction of apoptosis in human HCT-116 cells assessed as downregulation of TPI1 gene expression at 10 to 500 nM incubated for 6 to 48 hrs by RNA analysis; assay type: functional, cell-based; conditions: dose 10-500 nM, time 6-48 hrs
[25] = test system: HCT-116; test: Induction of apoptosis in human HCT-116 cells assessed as downregulation of NUP210 gene expression at 10 to 500 nM incubated for 6 to 48 hrs by RNA analysis; assay type: functional, cell-based; conditions: dose 10-500 nM, time 6-48 hrs
[26] = test system: HCT-116; test: Induction of apoptosis in human HCT-116 cells assessed as downregulation of SEH1L gene expression at 10 to 500 nM incubated for 6 to 48 hrs by RNA analysis; assay type: functional, cell-based; conditions: dose 10-500 nM, time 6-48 hrs
[27] = test system: HCT-116; test: Activation of innate immune response in human HCT-116 cells assessed as upregulation of IRF7 gene expression at 10 to 500 nM incubated for 6 to 48 hrs by RNA analysis; assay type: functional, cell-based; conditions: dose 10-500 nM, time 6-48 hrs
[28] = test system: HCT-116; test: Induction of apoptosis in human HCT-116 cells assessed as downregulation of HPRT1 gene expression at 10 to 500 nM incubated for 6 to 48 hrs by RNA analysis; assay type: functional, cell-based; conditions: dose 10-500 nM, time 6-48 hrs
[29] = test system: HCT-116; test: Induction of apoptosis in human HCT-116 cells assessed as modulation of DDX17 mRNA expression at 10 to 500 nM incubated for 6 to 48 hrs by RNA analysis; assay type: functional, cell-based; conditions: dose 10-500 nM, time 6-48 hrs
[30] = test system: HCT-116; test: Induction of apoptosis in human HCT-116 cells assessed as downregulation of SLC25A13 gene expression at 10 to 500 nM incubated for 6 to 48 hrs by RNA analysis; assay type: functional, cell-based; conditions: dose 10-500 nM, time 6-48 hrs
[31] = test system: HCT-116; test: Induction of apoptosis in human HCT-116 cells assessed as modulation of TOP2A mRNA expression at 10 to 500 nM incubated for 6 to 48 hrs by RNA analysis; assay type: functional, cell-based; conditions: dose 10-500 nM, time 6-48 hrs
[32] = test system: HCT-116; test: Induction of apoptosis in human HCT-116 cells assessed as downregulation of PRIM1 mRNA expression at 10 to 500 nM incubated for 6 to 48 hrs by RNA analysis; assay type: functional, cell-based; conditions: dose 10-500 nM, time 6-48 hrs
[33] = test system: HCT-116; test: Induction of apoptosis in human HCT-116 cells assessed as modulation of DDX18 mRNA expression at 10 to 500 nM incubated for 6 to 48 hrs by RNA analysis; assay type: functional, cell-based; conditions: dose 10-500 nM, time 6-48 hrs
[34] = test system: HCT-116; test: Induction of apoptosis in human HCT-116 cells assessed as downregulation of END1 gene expression at 10 to 500 nM incubated for 6 to 48 hrs by RNA analysis; assay type: functional, cell-based; conditions: dose 10-500 nM, time 6-48 hrs

SMILES	Activity [1]	Activity [2]	Activity [3]	Activity [4]	Activity [5]	IC50 [6] [µM]	Activity [7]	Activity [8]	Activity [9]	Activity [10]	Activity [11]	Activity [12]	Activity [13]	Activity [14]	Activity [15]	IC50 [16] [µM]	IC50 [17] [µM]	Activity [18]	Activity [19]	Activity [20]	further results
CCc1ccc(-c2c3c(nc4cc5c(cc24)OCO5)-c2cc4c(c(=O)n2C3)COC(=O)[C@]4(O)CC)cc1	Active	Active	Active	Active	Active	0.0375	Active	Dose-Dependent Effect	Active	Active	Active	Active	Active	Active	Active	0.0556	0.0474	Active	Active	Active	Activity [21]: Active; Activity [22]: Active; Activity [23]: Active; Activity [24]: Active; Activity [25]: Active; Activity [26]: Active; Activity [27]: Active; Activity [28]: Active; Activity [29]: Active; Activity [30]: Active; Activity [31]: Active; Activity [32]: Active; Activity [33]: Active; Activity [34]: Active
CC[C@@]1(O)C(=O)OCc2c1cc1n(c2=O)Cc2c-1nc1cc3c(cc1c2-c1ccc(OC)cc1)OCO3	Active	Active	Active	Active	Active	0.0483	Active	Dose-Dependent Effect	Active	Active	Active	Active	Active	Active	Active	0.0177	0.0458	Active	Active	Active	Activity [21]: Active; Activity [22]: Active; Activity [23]: Active; Activity [24]: Active; Activity [25]: Active; Activity [26]: Active; Activity [27]: Active; Activity [28]: Active; Activity [29]: Active; Activity [30]: Active; Activity [31]: Active; Activity [32]: Active; Activity [33]: Active; Activity [34]: Active

Reference: ChEMBL document CHEMBL5376003, “Structure-Activity Relationship of FL118 Platform Position 7 Versus Position 9-Derived Compounds and Their Mechanism of Action and Antitumor Activity” (J Med Chem, 2023)
